Assay results reported in patent US4038402A, “Method of effecting antihistaminic, antiserotonin and antiallergic actions” (priority 1974, dated 1977).

Experiments:
[1] = pharmacological activity in experiments on isolated organs and on intact animals (overall)
Procedure: (§1) The pharmacological activity of said compounds has been tested in various experiments in isolated organs and on intact narcotized and non-narcotizedanimals. The tests were aimed at establishing and quantitatively determining antihistaminic, antiserotonin, cholinolytic, and also broncholytic activity of the preparations. Moreover, the action of the preparations on increased permeability of the vessels, their antiexudative, antiallergic action were tested on guinea pigs, actively sensitized with ovalbumin with the administration of the antigen in the form of aerosol in effective doses. The effect of the preparations on the central nervous system, namely on the spontaneous motor activity, and also the interaction of the preparations with hypnotic and stimulating preparations, was tested.

[2] = test system: ovalbumin; test: anaphylactic reaction of guinea pigs sensitized with ovalbumin, aerosol of ovalbumin; type: in vivo; details: 30 mg/kg in the stomach
Procedure: as §1

[3] = test system: histamine; test: antihistaminic and antiallergic activity compared with known preparations; details: for certain experimental antihistaminic and antiallergic activity relative to known preparations: compared with dimedrol and diprasin-pipolfen
[4] = toxicity (LD50) on various laboratory animals; type: in vivo
Procedure: The toxicity (LD50) of the preparations was determined with various methods of administration (intravenous, subcutaneous, in the stomach) on various laboratory animals.

[5] = test system: serotonin and histamine; test: time course of action on bronchoconstriction by serotonin and histamine (Koncett-Rossler method); type: in vivo, guinea pigs; details: after intravenous injection
Description: The broncheal muscle tone was examined in intact narcotized guinea pigs by the Koncett-Rossler method.

[6] = test system: serotonin; details: 30 mg/kg in the stomach; serotonin aerosol
[7] = test system: serotonin; details: known antagonist; cited from earlier work

## OC(c1ccccc1)(C1CCCCC1)C1CN2CCC1CC2 (centres unmarked) [(phenyl)-(cyclohexyl)-(quinuclidyl- 3) -carbinol]
[1]
  pharmacological activity: high activity

## OC(c1ccccc1)(c1cccs1)C1CN2CCC1CC2 (centres unmarked) [(phenyl)-(thienyl- 2')-(quinuclidyl- 3)carbinol]
[1]
  pharmacological activity: high activity

## OC(c1cccs1)(c1cccs1)C1CN2CCC1CC2 (centres unmarked) [(quinuclidyl-3 )-di(thienyl- 2')-carbinol]
[1]
  pharmacological activity: high activity

## COc1ccccc1C(O)(c1ccccc1OC)C1CN2CCC1CC2 (centres unmarked) [(quinuclidyl-3)-di(2'-methoxyphenyl)carbinol]
[2]
  protection from anaphylactic reaction: actively protects
[3]
  certain experimental antihistaminic and antiallergic activity relative to known preparations: superior

## OC(c1ccccc1)(c1ccccc1)C1CN2CCC1CC2 (centres unmarked) [(quinuclidyl-3)-diphenylcarbinol]
[1]
  pharmacological activity: high activity
[3]
  antihistaminic activity: high antihistaminic activity
  certain experimental antihistaminic and antiallergic activity relative to known preparations: superior
[4]; given in the stomach
  times less toxic than dimedrol: 1.5 times
[4]; given intravenously
  times less toxic than dimedrol: 1.5 times

## CN(C)CCOC(c1ccccc1)c1ccccc1 [Dimedrol]
[5]
  onset of effect: immediately
[6]
  persistence of the antiserotonin action: 4 to 6 h

## CCN(CC)C(=O)[C@@H]1C=C2c3cccc4[nH]cc(c34)C[C@H]2N(C)C1 [LSD-25, diethylamide lysergic acid]
[5]
  onset of effect: immediately
[7]
  activity as antagonist to serotonin: one of the most active known antogonists to serotonin
